From the Biogen ADME set (Fang et al. 2023)
In brackets after ≈: the same amount, converted by molar mass.

Conditions: for aqueous solubility: pH 6.8

COc1cc2nn(CCC(C)(C)O)cc2cc1NC(=O)c1ccn(C(F)F)n1
MDR1-MDCK efflux ratio: 10.2 | intrinsic clearance, human liver microsomes: 18.7 mL/min/kg | intrinsic clearance, rat liver microsomes: ≤ 10.7 mL/min/kg

COc1cccc(S(=O)(=O)N2CCOC(c3c(C(N)=O)sc4ncccc34)C2)c1 (centres undefined)
MDR1-MDCK efflux ratio: 38.2

CN(Cc1n[nH]c2c1CCCC2)c1nccnc1C#N
MDR1-MDCK efflux ratio: 1.01 | intrinsic clearance, human liver microsomes: 39.6 mL/min/kg | intrinsic clearance, rat liver microsomes: 1140 mL/min/kg | aqueous solubility: 20.5 µg/mL (≈ 76.4 µM)

Fc1cc(-c2ccncc2)ccc1CNc1ncccn1
MDR1-MDCK efflux ratio: 0.843 | intrinsic clearance, human liver microsomes: 24.4 mL/min/kg | intrinsic clearance, rat liver microsomes: 238 mL/min/kg

CS(=O)(=O)NCCN1CCc2c(Cl)cc(Cl)cc2C1
MDR1-MDCK efflux ratio: 0.707 | intrinsic clearance, human liver microsomes: 14.3 mL/min/kg | intrinsic clearance, rat liver microsomes: 400 mL/min/kg

COc1ccc(Nc2ncnc3sccc23)c(OC)c1
MDR1-MDCK efflux ratio: 0.572 | intrinsic clearance, human liver microsomes: 89.3 mL/min/kg | intrinsic clearance, rat liver microsomes: 605 mL/min/kg | aqueous solubility: 40.1 µg/mL (≈ 140 µM)

CCN1CCC(N(C)c2ncnc3c2cnn3C)CC1
MDR1-MDCK efflux ratio: 1.01 | intrinsic clearance, human liver microsomes: 152 mL/min/kg | intrinsic clearance, rat liver microsomes: 37 mL/min/kg | aqueous solubility: 41.2 µg/mL (≈ 150 µM)

CCc1cc(CNC(=O)Nc2ccc(N3CCSCC3)cc2)on1
MDR1-MDCK efflux ratio: 19.2 | intrinsic clearance, human liver microsomes: 35.9 mL/min/kg | intrinsic clearance, rat liver microsomes: 1430 mL/min/kg

Cc1cnccc1NC(=O)COc1ccccc1C#N
intrinsic clearance, human liver microsomes: 12.2 mL/min/kg | intrinsic clearance, rat liver microsomes: 302 mL/min/kg

O=C(Cn1c(=O)c2cccn2c2ccccc21)NCCCN1CCCC1
MDR1-MDCK efflux ratio: 78.1 | intrinsic clearance, human liver microsomes: ≤ 4.74 mL/min/kg | intrinsic clearance, rat liver microsomes: 634 mL/min/kg | aqueous solubility: 52.3 µg/mL (≈ 148 µM)

Cc1sc(-c2ccccn2)nc1-c1ccc(NC(=O)C(C)C)cc1
MDR1-MDCK efflux ratio: 0.624 | intrinsic clearance, human liver microsomes: 15.4 mL/min/kg | intrinsic clearance, rat liver microsomes: 48.8 mL/min/kg | aqueous solubility: 1.41 µg/mL (≈ 4.18 µM)

Fc1ccccc1-c1noc(-c2ccc(NCCc3cnccn3)nc2)n1
MDR1-MDCK efflux ratio: 0.142 | intrinsic clearance, human liver microsomes: 10.2 mL/min/kg | intrinsic clearance, rat liver microsomes: 749 mL/min/kg | aqueous solubility: 5.51 µg/mL (≈ 15.2 µM)

CCN1CCN(S(=O)(=O)Cc2ccc(Cl)c(Cl)c2)CC1
MDR1-MDCK efflux ratio: 0.41 | fraction unbound, human plasma: 0.177 | fraction unbound, rat plasma: 0.118 | intrinsic clearance, human liver microsomes: 82.8 mL/min/kg | intrinsic clearance, rat liver microsomes: 1440 mL/min/kg | aqueous solubility: 25.7 µg/mL (≈ 76.2 µM)

COc1ccc(OCc2nn3c(-c4ccc(OC)cc4)nnc3s2)cc1
MDR1-MDCK efflux ratio: 0.536 | aqueous solubility: 0.2 µg/mL (≈ 0.543 µM)

O=C(Nc1ccc(CN2CCCCC2)cc1)c1ccnc2[nH]cnc12
MDR1-MDCK efflux ratio: 9.09 | fraction unbound, human plasma: 0.586 | intrinsic clearance, human liver microsomes: 7.73 mL/min/kg

Cc1nnc(-c2ccccc2-c2ccc(O)cc2)s1
MDR1-MDCK efflux ratio: 1.3 | intrinsic clearance, human liver microsomes: 14.6 mL/min/kg | intrinsic clearance, rat liver microsomes: 397 mL/min/kg | aqueous solubility: 50.1 µg/mL (≈ 187 µM)

O=C(NCc1cccc(F)c1)c1[nH]nnc1-c1ccccc1
MDR1-MDCK efflux ratio: 1.37 | intrinsic clearance, human liver microsomes: ≤ 4.74 mL/min/kg | intrinsic clearance, rat liver microsomes: 17.4 mL/min/kg | aqueous solubility: 20.9 µg/mL (≈ 70.7 µM)

CCn1c(=O)n(CC)c2cc(N)ccc21
MDR1-MDCK efflux ratio: 0.814 | intrinsic clearance, human liver microsomes: ≤ 4.74 mL/min/kg | intrinsic clearance, rat liver microsomes: 20 mL/min/kg | aqueous solubility: 37.5 µg/mL (≈ 183 µM)

CNC(=O)C1CCN(Cc2ncc(-c3ccc(F)cc3)o2)CC1
MDR1-MDCK efflux ratio: 4.86 | intrinsic clearance, human liver microsomes: ≤ 4.74 mL/min/kg | intrinsic clearance, rat liver microsomes: 11.2 mL/min/kg | aqueous solubility: 19.8 µg/mL (≈ 62.4 µM)

O=c1ccc(C2CC2)nn1CC1CN(CC2(O)CCCC2)C1
MDR1-MDCK efflux ratio: 12.5 | intrinsic clearance, human liver microsomes: ≤ 4.74 mL/min/kg | intrinsic clearance, rat liver microsomes: 84 mL/min/kg | aqueous solubility: 52.6 µg/mL (≈ 173 µM)

CN1CC(=O)N(CCOc2ccccc2)C1=O
aqueous solubility: 23.1 µg/mL (≈ 98.4 µM)

O=C(c1ccc(-c2ccncc2)cc1)N1CCC(F)(F)CC1
intrinsic clearance, human liver microsomes: ≤ 4.74 mL/min/kg | intrinsic clearance, rat liver microsomes: 43.2 mL/min/kg

CNC(=O)c1ccccc1Nc1nc(Nc2ccc(N3CCOCC3)cc2OC)ncc1Cl
MDR1-MDCK efflux ratio: 3.06 | intrinsic clearance, human liver microsomes: 14.9 mL/min/kg | intrinsic clearance, rat liver microsomes: 95.1 mL/min/kg | aqueous solubility: 1.95 µg/mL (≈ 4.15 µM)

COc1cccc(CN2CCC(Cc3ccc(-c4cccnc4)cc3)(C(N)=O)CC2)c1
MDR1-MDCK efflux ratio: 7.02 | intrinsic clearance, human liver microsomes: 108 mL/min/kg | intrinsic clearance, rat liver microsomes: 631 mL/min/kg | aqueous solubility: 70.6 µg/mL (≈ 170 µM)

O[C@@H]1CCCC[C@H]1N1CCC(c2ccccc2)CC1
MDR1-MDCK efflux ratio: 0.462 | intrinsic clearance, human liver microsomes: ≤ 4.74 mL/min/kg | intrinsic clearance, rat liver microsomes: 1390 mL/min/kg | aqueous solubility: 46.5 µg/mL (≈ 179 µM)

Cc1ccc2oc(C(=O)N3CC[C@H](O)[C@@H](N4CCOCC4)CC3)cc2c1
MDR1-MDCK efflux ratio: 2.46 | intrinsic clearance, human liver microsomes: 16.6 mL/min/kg | intrinsic clearance, rat liver microsomes: 1260 mL/min/kg

CCNC(=O)c1ccnc(-c2ccc(F)c(C)c2)c1
intrinsic clearance, human liver microsomes: 123 mL/min/kg | intrinsic clearance, rat liver microsomes: 1070 mL/min/kg | aqueous solubility: 28.4 µg/mL (≈ 110 µM)

CC(C)CC(=O)N1CCC(Cc2cccc(-c3cncnc3)c2)(C(=O)NC(C)C)CC1
MDR1-MDCK efflux ratio: 71.8 | intrinsic clearance, human liver microsomes: 199 mL/min/kg | intrinsic clearance, rat liver microsomes: 694 mL/min/kg | aqueous solubility: 137 µg/mL (≈ 324 µM)

Cc1nc(C(=O)NCC(=O)O)c(O)c2ccc(Oc3ccccc3)cc12
MDR1-MDCK efflux ratio: 1.23 | intrinsic clearance, human liver microsomes: ≤ 4.74 mL/min/kg | intrinsic clearance, rat liver microsomes: ≤ 10.7 mL/min/kg

CC1=NN(c2ccc(F)cc2)C(=O)/C1=C(/C)Nc1ccc(S(N)(=O)=O)cc1
MDR1-MDCK efflux ratio: 12 | intrinsic clearance, human liver microsomes: ≤ 4.74 mL/min/kg | intrinsic clearance, rat liver microsomes: ≤ 10.7 mL/min/kg | aqueous solubility: 28.4 µg/mL (≈ 73 µM)

Cc1cccc(NC(=O)c2cncn2-c2ccccc2)n1
intrinsic clearance, human liver microsomes: 45.2 mL/min/kg | intrinsic clearance, rat liver microsomes: 165 mL/min/kg

CCc1c(-c2ccccc2)[n+]([O-])c2c([n+]1[O-])CCCCC2
MDR1-MDCK efflux ratio: 2.95 | intrinsic clearance, human liver microsomes: 8.95 mL/min/kg | intrinsic clearance, rat liver microsomes: 43.4 mL/min/kg

COc1cccc(O[C@H]2CCN(C(=O)c3cc(-c4ccc(F)cc4)on3)CC[C@@H]2O)c1
MDR1-MDCK efflux ratio: 0.882 | intrinsic clearance, human liver microsomes: 66.3 mL/min/kg | intrinsic clearance, rat liver microsomes: 577 mL/min/kg

Cc1oc2cc(OCC(=O)Nc3nccs3)ccc2c(=O)c1Oc1ccc(F)cc1
MDR1-MDCK efflux ratio: 0.97 | aqueous solubility: 0.5 µg/mL (≈ 1.17 µM)

CN(Cc1cnccn1)Cc1nc(N)c2ccccc2n1
intrinsic clearance, human liver microsomes: 15 mL/min/kg | intrinsic clearance, rat liver microsomes: 458 mL/min/kg

Cc1cc(C(=O)NC2CCN(c3nc(-c4cccs4)nc4ccccc34)CC2)on1
MDR1-MDCK efflux ratio: 0.753 | aqueous solubility: 0.96 µg/mL (≈ 2.29 µM)

N#Cc1ccccc1OCc1csc(-c2ncccn2)n1
MDR1-MDCK efflux ratio: 0.59 | intrinsic clearance, human liver microsomes: 31.1 mL/min/kg | intrinsic clearance, rat liver microsomes: 119 mL/min/kg | aqueous solubility: 12.7 µg/mL (≈ 43.1 µM)

COc1ccc(-c2c(C)n[nH]c2C)cn1
MDR1-MDCK efflux ratio: 0.678 | intrinsic clearance, human liver microsomes: ≤ 4.74 mL/min/kg | intrinsic clearance, rat liver microsomes: 52.2 mL/min/kg | aqueous solubility: 14.7 µg/mL (≈ 72.4 µM)

CCc1cnc(CCNc2cncc(Cl)n2)s1
intrinsic clearance, human liver microsomes: 183 mL/min/kg | intrinsic clearance, rat liver microsomes: 855 mL/min/kg | aqueous solubility: 48 µg/mL (≈ 179 µM)

CC(C)c1noc2nc(C3CC3)cc(C(=O)N3CCN(C)C(=O)C3)c12
MDR1-MDCK efflux ratio: 40.6 | intrinsic clearance, human liver microsomes: 7.73 mL/min/kg | intrinsic clearance, rat liver microsomes: 20.8 mL/min/kg | aqueous solubility: 36.1 µg/mL (≈ 106 µM)

COc1cc2c(cc1OC)CN(C(=O)C1CCCN(S(=O)(=O)c3cccs3)C1)CC2 (centres undefined)
MDR1-MDCK efflux ratio: 9.7 | intrinsic clearance, human liver microsomes: 68.3 mL/min/kg | intrinsic clearance, rat liver microsomes: 707 mL/min/kg | aqueous solubility: 22.1 µg/mL (≈ 49 µM)

CCCn1cnnc1CN(C)Cc1cc(C(C)C)on1
MDR1-MDCK efflux ratio: 15.3 | intrinsic clearance, human liver microsomes: ≤ 4.74 mL/min/kg | intrinsic clearance, rat liver microsomes: 534 mL/min/kg

Cc1nc2c(c(N(C)Cc3ccccc3)n1)CCN(Cc1ccccc1)C2
MDR1-MDCK efflux ratio: 0.742 | intrinsic clearance, human liver microsomes: 657 mL/min/kg | intrinsic clearance, rat liver microsomes: 4170 mL/min/kg | aqueous solubility: 29.7 µg/mL (≈ 82.8 µM)

CCCCc1nc2cc(/C=C/C(=O)NO)ccc2n1CCN(CC)CC
MDR1-MDCK efflux ratio: 28.3 | intrinsic clearance, human liver microsomes: ≤ 4.74 mL/min/kg | intrinsic clearance, rat liver microsomes: 366 mL/min/kg | aqueous solubility: 57.5 µg/mL (≈ 160 µM)

COc1ccccc1-c1cc(NC(=O)c2cccc(N3CCNC3=O)c2)[nH]n1
MDR1-MDCK efflux ratio: 60.4 | fraction unbound, human plasma: 0.004 | fraction unbound, rat plasma: 0.00181 | intrinsic clearance, human liver microsomes: 7.53 mL/min/kg | intrinsic clearance, rat liver microsomes: 103 mL/min/kg | aqueous solubility: 5.95 µg/mL (≈ 15.8 µM)

O=C(CCc1cc2ccccc2o1)N1CCN(c2cnccn2)CC1
MDR1-MDCK efflux ratio: 0.629 | intrinsic clearance, human liver microsomes: 69.6 mL/min/kg | intrinsic clearance, rat liver microsomes: 497 mL/min/kg | aqueous solubility: 55.5 µg/mL (≈ 165 µM)

O=C(Nc1nc2ccccc2[nH]1)C1CCCO1 (centres undefined)
aqueous solubility: 35.5 µg/mL (≈ 154 µM)

COc1ccc(OC)c(S(=O)(=O)NCCC(=O)Nc2ccccc2C)c1
MDR1-MDCK efflux ratio: 19.9 | intrinsic clearance, human liver microsomes: 51.5 mL/min/kg | intrinsic clearance, rat liver microsomes: 616 mL/min/kg

COc1ccc(CN2CCN(c3cc(C)nc(N)n3)CC2)cc1OC
MDR1-MDCK efflux ratio: 5.7 | intrinsic clearance, human liver microsomes: ≤ 4.74 mL/min/kg | intrinsic clearance, rat liver microsomes: ≤ 10.7 mL/min/kg | aqueous solubility: 53.6 µg/mL (≈ 156 µM)

CCSCc1nc(N)c2ccccc2n1
MDR1-MDCK efflux ratio: 0.681 | intrinsic clearance, human liver microsomes: 30.3 mL/min/kg | intrinsic clearance, rat liver microsomes: 121 mL/min/kg | aqueous solubility: 30.4 µg/mL (≈ 139 µM)

CO[C@H]1/C=C\C=C(/C)C(=O)NC2=CC(=O)C(NCCN(C)C)=C(C[C@@H](C)C[C@@H](OC)[C@@H](O)[C@@H](C)/C=C(\C)[C@H]1OC(N)=O)C2=O
MDR1-MDCK efflux ratio: 61.5 | intrinsic clearance, human liver microsomes: 21 mL/min/kg | intrinsic clearance, rat liver microsomes: 73.6 mL/min/kg

CC(C)(C(=O)c1ccccc1)/[N+]([O-])=C/c1ccc(F)cc1
MDR1-MDCK efflux ratio: 0.68 | intrinsic clearance, human liver microsomes: 7.63 mL/min/kg | intrinsic clearance, rat liver microsomes: 61.4 mL/min/kg

CCCc1nc(N2CCc3ccccc3C2)ncc1C(=O)O
MDR1-MDCK efflux ratio: 0.725 | intrinsic clearance, human liver microsomes: ≤ 4.74 mL/min/kg | intrinsic clearance, rat liver microsomes: 39.3 mL/min/kg | aqueous solubility: 51.4 µg/mL (≈ 173 µM)

CN1CCC(OC(=O)Nc2ccc(Cl)c(Cl)c2)CC1
MDR1-MDCK efflux ratio: 0.397 | intrinsic clearance, human liver microsomes: 8.57 mL/min/kg | intrinsic clearance, rat liver microsomes: 209 mL/min/kg | aqueous solubility: 87.4 µg/mL (≈ 288 µM)

Cc1ccc(C(=O)C(=O)NC2CCCC2)cc1
MDR1-MDCK efflux ratio: 0.471 | intrinsic clearance, human liver microsomes: 104 mL/min/kg | intrinsic clearance, rat liver microsomes: 465 mL/min/kg | aqueous solubility: 30.2 µg/mL (≈ 131 µM)

Cc1ccn(-c2ccc3[nH]c4c(c3c2)CCCC4=O)n1
intrinsic clearance, human liver microsomes: 137 mL/min/kg | intrinsic clearance, rat liver microsomes: 512 mL/min/kg | aqueous solubility: 9.65 µg/mL (≈ 36.4 µM)
